Data published in patent publication US20130259882A1, “Conjugate of Folate and Antibody Preparation Method and Use Thereof” (priority 2010, published 2013).
Marks after values point to notes of the source that are not given here.

What was measured:
[1] = system: mice with inflammatory bowel disease; test: Acetic acid induced colitis (inflammatory bowel disease model); format: in vivo, Kunming mice; settings: Mesalazine 600 mg/kg orally
Experimental: Mesalazine SR Granules are from Ethypharm (France). MPO detection kit is from Nanjing Jian-Cheng Bioengineering Institute. • 2. Animal: 50 healthy and mature male Kunming mice, body weight 18-22 g are provided by Nanjing University model animal center.
Mesalazine positive control group were given 600 mg/kg Mesalazine orally. Control group and model groups were i.p. injected with equal amount of saline. The injections were performed once per day.
Acetic acid stimulation was used to induce colitis. The mice were fasting on day 9, and on day 10, were anaesthetized with ether inhalation. Before injection, the intestinal was cleaned, with a polyethylene pipe containing 0.1 ml 6% acetic acid inserted about 1.5 cm into the anus.
Colon macroscopic damage index (CMDI): The entire colon was taken and scissored along the mesenteric. The adhesion, ulcer and congestion were scored by naked eye observation according to the Table 7. • 2. Myeloperoxidase (MPO): The tissues were weighted and homogenized (1:19, weight/volume) in Tris buffer. After homogenization and repeated freezing and thawing, the tissues were made to 5% homogenate. MPO detection was performed according to kit manufacturer's instructions and the protein level was detected using the Lowry method.

[2] = system: rats with rheumatoid arthritis; test: Complete Freund adjuvant induced rheumatoid arthritis model; format: in vivo, Wistar rat; settings: Diclofenac sodium 10 mg/kg orally
Experimental: Rat IgG and complete Freund adjuvant are from Sigma. Diclofenac sodium enteric-coated tablets are from Beijing Novartis Pharma Ltd. RF detection kit is from Nanjing JianCheng Bioengineering Institute. • 2. Animal: 50 healthy and mature Wistar rat, both male and female, body weight 150˜200 g are provided by Wuhan University Laboratory Animal Center, China.
Diclofenac sodium positive control group were given 10 mg/kg Diclofenac sodium orally. Normal control group and model group were Intra-peritoneally injected equal amount of saline. The injections were performed once per day. After measurement of right foot volume on day 0, 0.1 ml complete Freund adjuvant was subcutaneously injected into right ankle. On day 21, the right foot volume was measured after the last injection. Rats were sacrificed with ether inhalation after taking blood samples. The blood samples were centrifuged to get serum for the detection of rheumatoid factor (RF).
Rheumatoid factors RF: 100 μl serum were used with RF detection kit.

[3] = system: folate receptor transfected MCF-7 cells; test: Breast cancer model: folate receptor transfected MCF-7 cells injected subcutaneously in mice, tumor volume and mean survival time; format: in vivo, nude mice
Experimental: Animal: 50 healthy and mature female nude mice, body weight 18-22 g are provided by Nanjing University Model Animal Center.
By weight, the mice were randomly divided into normal control group, model group, Epirubicin positive control group, FIG 5 mg/kg group and 40 mg/kg group, FGIG 5 mg/kg group and 40 mg/kg group. 7 days before the beginning of the experiment, the mice were maintained with feed without folic acid. From day 0, model group, epirubicin positive control group, FIG 5 mg/kg group or 40 mg/kg group and FGIG 5 mg/kg group or 40 mg/kg group were subcutaneously injected with folate receptor transfected MCF-7 cells (1×10^6) each. From day 5, FIG 5 mg/kg group and FIG 40 mg/kg group were intra-peritoneally injected with FIG 5 mg/kg and 40 mg/kg, respectively). FGIG 5 mg/kg group and FGIG 40 mg/kg group were intra-peritoneally injected with FGIG (5 mg/kg and 40 mg/kg, respectively). Epirubicin positive control group were intra-peritoneally injected with Epirubicin (200 mg/kg). Normal control group and model group were intra-peritoneally injected equal amount of saline. The injections were performed once time every four days. 15 days after injection, the mice were fasting. The next day after treatment, tumor volume was measured with vernier caliper and mean survival time was also calculated.
Volume: solid tumor volume was calculated using the following formula: V=0.5×L×W×H.

## Nc1ccc(O)c(C(=O)O)c1 [Mesalazine]
[1]
  Colon coefficient (g/100 g): 1.21 ± 0.13 g/100 g
[1]; colon tissue
  MPO (U/mg · pro.): 2.42 ± 0.11 U/mg · pro.
[1]; score per Table 7
  Inflammation rating level: 1.9 ± 0.5

## O=C(O)Cc1ccccc1Nc1c(Cl)cccc1Cl [Diclofenac sodium]
[2]; day 21
  Joint injury score: 0.6 ± 0.22
[2]; rheumatoid factor in serum
  RF: 15.2 ± 1.99 pg/mL
[2]; right foot, day 21 vs day 0
  Toe volume difference: 0.090 ± 0.052 mL

## COc1cccc2c1C(=O)c1c(O)c3c(c(O)c1C2=O)C[C@@](O)(C(=O)CO)C[C@@H]3O[C@H]1C[C@H](N)[C@@H](O)[C@H](C)O1 [Epirubicin]
[3]; Epirubicin 200 mg/kg i.p.
  Mean survival time (days): 9 ^▴▴ days
[3]; Epirubicin 200 mg/kg i.p. every four days, day 16
  Volume of tumor (cm^3): 6.18 ± 1.34 ^▴▴ cm^3
